Assay results from US9023789B2, “Amylin analogs and pharmaceutical compositions thereof” (Novo Nordisk A/S, priority 2012, dated 2015).
Converted amounts (≈) assume the structure as drawn. Read-outs that look alike come from different tables or passages of the source. Numbered stars: 1 amine (or outer) side, 2 acyl side, 3 side chain; on linkers, the order of the positions; unused ones are H or OH. Bridge positions count the residues as written; N and C are the ends. Side chains are listed from the residue outwards. Peptide text beside a SMILES is read from it. * marks the point of attachment. C20 diacid = O=C(O)CCCCCCCCCCCCCCCCCCC(=O)*; γGlu = O=C(O)[C@H](CCC(=O)[*:2])N[*:1]

Legend:
[1] = ASSAY (IV) determination of solubility; assay type: physicochemical
Procedure, shortened: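 UPLC read-out of polypeptide concentration after centrifugation. Samples: aqueous polypeptide stock ([…]) + 100 mM buffer 1:1, glycylglycine pH 3.0–5.0 or bistrispropane pH 6.0–8.0; 18 h, RT.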

[2] = target: T1, rat amylin receptor (rat calcitonin receptor + rat RAMP 3) (Rattus norvegicus, UniProt P32214+Q9JJ73); assay: ASSAY (VI) binding to the rat amylin receptor; conditions: for IC50: binding to rat amylin receptor, read-out: rAmylin-R bind IC50
T1 construct: expressed in transfected cells; host or cells: BHK tk'ts 13 (transient, FuGENE 6), membranes
T1 sequence (P32214 25-479 isoform P32214-2 limits assumed): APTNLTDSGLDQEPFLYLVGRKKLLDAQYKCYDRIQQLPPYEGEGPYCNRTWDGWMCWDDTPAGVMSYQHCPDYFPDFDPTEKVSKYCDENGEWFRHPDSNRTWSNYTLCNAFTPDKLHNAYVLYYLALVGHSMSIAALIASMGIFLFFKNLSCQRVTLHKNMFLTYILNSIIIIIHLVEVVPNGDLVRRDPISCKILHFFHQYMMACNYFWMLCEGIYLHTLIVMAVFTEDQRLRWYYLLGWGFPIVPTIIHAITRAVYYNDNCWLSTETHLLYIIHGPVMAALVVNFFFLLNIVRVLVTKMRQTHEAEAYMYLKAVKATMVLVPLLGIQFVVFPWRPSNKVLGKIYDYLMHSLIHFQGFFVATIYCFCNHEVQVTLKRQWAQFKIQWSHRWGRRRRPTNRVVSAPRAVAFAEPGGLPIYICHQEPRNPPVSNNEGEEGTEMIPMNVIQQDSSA
T1 sequence (Q9JJ73 23-147 partner): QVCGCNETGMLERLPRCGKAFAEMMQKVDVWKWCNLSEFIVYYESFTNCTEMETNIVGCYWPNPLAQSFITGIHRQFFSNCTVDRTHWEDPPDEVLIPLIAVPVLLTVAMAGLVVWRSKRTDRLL
Procedure, shortened: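 The cell-membrane assay assessed binding at the rat amylin receptor. BHK tk′ts 13 cells were transfected transiently with rat calcitonin receptor, with FuGENE® 6 (Roche) as the transfection reagent, used per the manufacturer's recommendations. Approximately 48 hours after transfection the cells were harvested, and membranes were prepared for measuring binding.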

[3] = target: T2, human amylin 3(a) receptor (human calcitonin receptor + RAMP-3) in BHK570 cells (Homo sapiens, UniProt O60896+P30988); assay: ASSAY (II)a functional assay, human amylin receptor (CRE luciferase); assay type: cell-based
T2 construct: expressed in transfected cells
Procedure, shortened: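 Functional agonism was measured by CRE-luciferase reporter luminescence in BHK cells bearing calcitonin receptor, or calcitonin receptor plus RAMP-3 as the amylin 3(a) receptor. Stimulation lasted 3 hours at 37° C.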

[4] = bistrispropane buffer, pH 6.5, read-out: Solubility pH 6.5 Concentration
[5] = bistrispropane buffer, pH 7.5, read-out: Solubility pH 7.5 Concentration
[6] = bistrispropane buffer, pH 6.0, read-out: Solubility pH 6.0 Concentration
[7] = bistrispropane buffer, pH 7.0, read-out: Solubility pH 7.0 Concentration
[8] = bistrispropane buffer, pH 8.0, read-out: Solubility pH 8.0 Concentration
[9] = glycylglycine buffer, pH 3.0, read-out: Solubility pH 3.0 Concentration
[10] = glycylglycine buffer, pH 4.0, read-out: Solubility pH 4.0 Concentration
[11] = glycylglycine buffer, pH 5.0, read-out: Solubility pH 5.0 Concentration
[12] = Table 7, rat binding selectivity, rCTR IC50 / rAmylin-R IC50
[13] = Table 7a (preferred compounds), rat binding selectivity, rCTR IC50 / rAmylin-R IC50
[14] = ratio of rCTR bind IC50 to rAmylin-R bind IC50
[15] = hCTR funct. EC50 divided by hAmylin-R funct. EC50
[16] = hCTR funct. EC50 over hAmylin-R funct. EC50
[17] = human functional selectivity: hCTR funct. EC50 / hAmylin-R funct. EC50

T2 sequence (O60896 24-148): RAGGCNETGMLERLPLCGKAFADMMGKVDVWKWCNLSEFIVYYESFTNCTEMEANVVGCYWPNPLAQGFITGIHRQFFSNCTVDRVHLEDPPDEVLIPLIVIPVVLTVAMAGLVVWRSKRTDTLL
T2 sequence (P30988 25-474): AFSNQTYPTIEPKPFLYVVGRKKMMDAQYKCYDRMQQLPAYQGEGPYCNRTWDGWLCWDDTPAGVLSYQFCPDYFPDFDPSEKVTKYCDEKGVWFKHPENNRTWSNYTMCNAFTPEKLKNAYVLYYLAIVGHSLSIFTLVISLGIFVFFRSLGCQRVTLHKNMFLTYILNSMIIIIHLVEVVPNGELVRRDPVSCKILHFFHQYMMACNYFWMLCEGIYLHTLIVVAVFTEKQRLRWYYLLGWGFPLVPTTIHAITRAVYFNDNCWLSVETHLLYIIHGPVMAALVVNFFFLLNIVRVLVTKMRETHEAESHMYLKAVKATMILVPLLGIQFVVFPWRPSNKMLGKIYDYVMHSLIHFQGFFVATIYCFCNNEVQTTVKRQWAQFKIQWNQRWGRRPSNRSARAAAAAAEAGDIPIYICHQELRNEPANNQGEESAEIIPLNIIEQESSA

Row | solubility at 18 h [1, 4] [µM] | solubility at 18 h [1, 5] [µM] | solubility at 18 h [1, 6] [µM] | solubility at 18 h [1, 7] [µM] | solubility at 18 h [1, 8] [µM] | solubility at 18 h [1, 9] [µM] | solubility at 18 h [1, 10] [µM] | solubility at 18 h [1, 11] [µM] | IC50 ([2]; Table 7) [nM] | Ratio rCT/rAmylin binding [2, 12] | Ratio rCT/rAmylin binding [2, 13] | Ratio rCT/rAmylin binding [2, 14] | Ratio hCT/hAmylin funct. [3, 15] | Ratio hCT/hAmylin funct. [3, 16] | Ratio hCT/hAmylin funct. [3, 17] | Solubility pH 6.5 Concentration ([1]; pH 6.5 (Table 9a)) | SMILES
1 | ≥ 200 | 94 (≈ 422 µg/mL) | ≥ 200 | 154 (≈ 691 µg/mL) | 120 (≈ 539 µg/mL) | ≥ 200 | ≥ 200 | ≥ 200 | 2.7 | 79.8 | 79.8 | 79.8 | 10.0 | 10.0 | 10.0 | – | CC[C@H](C)[C@H](NC(=O)[C@H](C)NC(=O)CNC(=O)[C@H](Cc1ccccc1)NC(=O)[C@H](CC(N)=O)NC(=O)[C@@H]1CCCN1C(=O)[C@H](CO)NC(=O)[C@H](CO)NC(=O)[C@H](Cc1c[nH]cn1)NC(=O)[C@H](CCCNC(=N)N)NC(=O)[C@H](CC(C)C)NC(=O)[C@H](Cc1ccccc1)NC(=O)[C@H](Cc1c[nH]cn1)NC(=O)[C@H](C)NC(=O)[C@H](CC(C)C)NC(=O)[C@H](CCCNC(=N)N)NC(=O)[C@H](CCC(N)=O)NC(=O)[C@@H](NC(=O)[C@H](C)NC(=O)[C@@H]1CSSC[C@H](NC(=O)[C@H](CCCNC(=N)N)NC(=O)CNC(=O)CC[C@H](NC(=O)CCCCCCCCCCCCCCCCCCC(=O)O)C(=O)O)C(=O)N[C@@H](CC(N)=O)C(=O)N[C@@H]([C@@H](C)O)C(=O)N[C@@H](C)C(=O)N[C@@H]([C@@H](C)O)C(=O)N1)[C@@H](C)O)C(=O)N1CCC[C@H]1C(=O)N[C@@H](CO)C(=O)N[C@@H](CO)C(=O)N[C@H](C(=O)N[C@@H](CC(N)=O)C(=O)N[C@H](C(=O)NCC(=O)N[C@@H](CO)C(=O)N[C@@H](CC(N)=O)C(=O)N[C@H](C(=O)N[C@@H](Cc1ccc(O)cc1)C(N)=O)[C@@H](C)O)C(C)C)[C@@H](C)O [Example 99] ({C20 diacid-γGlu}-GRCNTATCATQRLAHFLRHSSPNFGAIPSSTNVGSNTY-NH2; disulfide 3-8)
2 | ≥ 200 | 26 (≈ 118 µg/mL) | ≥ 200 | 109 (≈ 495 µg/mL) | 31 (≈ 141 µg/mL) | ≥ 200 | ≥ 200 | – | 11.2 | 27.7 | 27.7 | 27.7 | 6.8 | 6.8 | 6.8 | ≧200 μM | CC[C@H](C)[C@H](NC(=O)[C@H](C)NC(=O)CNC(=O)[C@H](Cc1ccccc1)NC(=O)[C@H](CC(N)=O)NC(=O)[C@@H]1CCCN1C(=O)[C@H](CO)NC(=O)[C@H](CO)NC(=O)[C@H](Cc1c[nH]cn1)NC(=O)[C@H](CCCNC(=N)N)NC(=O)[C@H](CC(C)C)NC(=O)[C@H](Cc1ccccc1)NC(=O)[C@H](Cc1c[nH]cn1)NC(=O)[C@H](C)NC(=O)[C@H](CC(C)C)NC(=O)[C@H](CCCNC(=N)N)NC(=O)[C@H](CCC(N)=O)NC(=O)[C@@H](NC(=O)[C@H](C)NC(=O)[C@@H]1CSSC[C@H](NC(=O)[C@H](CCCNC(=N)N)NC(=O)CNC(=O)CC[C@H](NC(=O)CCCCCCCCCCCCCCCCCCC(=O)O)C(=O)O)C(=O)N[C@@H](CC(N)=O)C(=O)N[C@@H]([C@@H](C)O)C(=O)N[C@@H](C)C(=O)N[C@@H]([C@@H](C)O)C(=O)N1)[C@@H](C)O)C(=O)N1CCC[C@H]1C(=O)N[C@@H](CO)C(=O)N[C@@H](CO)C(=O)N[C@H](C(=O)N[C@@H](CC(N)=O)C(=O)N[C@H](C(=O)NCC(=O)N[C@@H](Cc1c[nH]cn1)C(=O)N[C@@H](CC(N)=O)C(=O)N[C@H](C(=O)N[C@@H](Cc1ccc(O)cc1)C(N)=O)[C@@H](C)O)C(C)C)[C@@H](C)O [Example 100] ({C20 diacid-γGlu}-GRCNTATCATQRLAHFLRHSSPNFGAIPSSTNVGHNTY-NH2; disulfide 3-8 (inferred))
3 | ≥ 200 | ≥ 200 | ≥ 200 | ≥ 200 | ≥ 200 | – | ≥ 200 | ≥ 200 | 0.449 | 74.7 | 74.7 | 74.7 | – | 5.8 | 5.8 | – | CC[C@H](C)[C@H](NC(=O)[C@H](C)NC(=O)CNC(=O)[C@H](Cc1ccccc1)NC(=O)[C@H](CC(N)=O)NC(=O)[C@@H]1CCCN1C(=O)[C@H](CO)NC(=O)[C@H](CO)NC(=O)[C@H](Cc1c[nH]cn1)NC(=O)[C@H](CCCNC(=N)N)NC(=O)[C@H](CC(C)C)NC(=O)[C@H](Cc1ccccc1)NC(=O)[C@H](CCC(=O)O)NC(=O)[C@H](C)NC(=O)[C@H](CC(C)C)NC(=O)[C@H](CCCNC(=N)N)NC(=O)[C@H](CCC(N)=O)NC(=O)[C@@H](NC(=O)[C@H](C)NC(=O)[C@@H]1CSSC[C@H](NC(=O)[C@@H](N)CCCCNC(=O)CC[C@H](NC(=O)CC[C@H](NC(=O)CCCCCCCCCCCCCCCCCCC(=O)O)C(=O)O)C(=O)O)C(=O)N[C@@H](CC(N)=O)C(=O)N[C@@H]([C@@H](C)O)C(=O)N[C@@H](C)C(=O)N[C@@H]([C@@H](C)O)C(=O)N1)[C@@H](C)O)C(=O)N[C@@H](CC(C)C)C(=O)N[C@@H](CO)C(=O)N[C@@H](CO)C(=O)N[C@H](C(=O)N1CCC[C@H]1C(=O)N[C@H](C(=O)NCC(=O)N1CCC[C@H]1C(=O)N[C@@H](CCC(=O)O)C(=O)N[C@H](C(=O)N[C@@H](Cc1ccc(O)cc1)C(N)=O)[C@@H](C)O)C(C)C)[C@@H](C)O [Example 121] (H-K([γGlu-γGlu-C20 diacid])CNTATCATQRLAEFLRHSSPNFGAILSSTPVGPETY-NH2; disulfide 2-7; N-terminus assumed)
4 | 131 (≈ 594 µg/mL) | ≥ 200 | 64 (≈ 290 µg/mL) | 198 (≈ 898 µg/mL) | – | – | 7 (≈ 31.7 µg/mL) | – | 0.659 | 131.7 | 131.7 | – | – | 17.3 | 17.3 | – | CC[C@H](C)[C@H](NC(=O)[C@H](C)NC(=O)CNC(=O)[C@@H]1CCCN1C(=O)[C@H](CC(N)=O)NC(=O)[C@H](CC(N)=O)NC(=O)[C@H](CO)NC(=O)[C@H](CO)NC(=O)[C@H](Cc1c[nH]cn1)NC(=O)[C@H](CCCNC(=N)N)NC(=O)[C@H](CC(C)C)NC(=O)[C@H](Cc1ccccc1)NC(=O)[C@H](CCC(=O)O)NC(=O)[C@H](C)NC(=O)[C@H](CC(C)C)NC(=O)[C@H](CCCNC(=N)N)NC(=O)[C@H](CCC(N)=O)NC(=O)[C@@H](NC(=O)[C@H](C)NC(=O)[C@@H]1CSSC[C@H](NC(=O)[C@@H](N)CCCCNC(=O)CC[C@H](NC(=O)CC[C@H](NC(=O)CCCCCCCCCCCCCCCCCCC(=O)O)C(=O)O)C(=O)O)C(=O)N[C@@H](CC(N)=O)C(=O)N[C@@H]([C@@H](C)O)C(=O)N[C@@H](C)C(=O)N[C@@H]([C@@H](C)O)C(=O)N1)[C@@H](C)O)C(=O)N[C@@H](CC(C)C)C(=O)N[C@@H](CO)C(=O)N[C@@H](CO)C(=O)N[C@H](C(=O)N[C@@H](CC(N)=O)C(=O)N[C@H](C(=O)NCC(=O)N1CCC[C@H]1C(=O)N[C@@H](CCC(=O)O)C(=O)N[C@H](C(=O)N[C@@H](Cc1ccc(O)cc1)C(N)=O)[C@@H](C)O)C(C)C)[C@@H](C)O [Example 126] (H-K([γGlu-γGlu-C20 diacid])CNTATCATQRLAEFLRHSSNNPGAILSSTNVGPETY-NH2; disulfide 2-7 (inferred); N-terminus assumed)
